Biological target: T1, human parathyroid cell Ca^2+ receptor (hPCaR) (Homo sapiens, UniProt P41180)
T1 construct: expressed in transfected cells
T1 sequence (P41180 20-1078): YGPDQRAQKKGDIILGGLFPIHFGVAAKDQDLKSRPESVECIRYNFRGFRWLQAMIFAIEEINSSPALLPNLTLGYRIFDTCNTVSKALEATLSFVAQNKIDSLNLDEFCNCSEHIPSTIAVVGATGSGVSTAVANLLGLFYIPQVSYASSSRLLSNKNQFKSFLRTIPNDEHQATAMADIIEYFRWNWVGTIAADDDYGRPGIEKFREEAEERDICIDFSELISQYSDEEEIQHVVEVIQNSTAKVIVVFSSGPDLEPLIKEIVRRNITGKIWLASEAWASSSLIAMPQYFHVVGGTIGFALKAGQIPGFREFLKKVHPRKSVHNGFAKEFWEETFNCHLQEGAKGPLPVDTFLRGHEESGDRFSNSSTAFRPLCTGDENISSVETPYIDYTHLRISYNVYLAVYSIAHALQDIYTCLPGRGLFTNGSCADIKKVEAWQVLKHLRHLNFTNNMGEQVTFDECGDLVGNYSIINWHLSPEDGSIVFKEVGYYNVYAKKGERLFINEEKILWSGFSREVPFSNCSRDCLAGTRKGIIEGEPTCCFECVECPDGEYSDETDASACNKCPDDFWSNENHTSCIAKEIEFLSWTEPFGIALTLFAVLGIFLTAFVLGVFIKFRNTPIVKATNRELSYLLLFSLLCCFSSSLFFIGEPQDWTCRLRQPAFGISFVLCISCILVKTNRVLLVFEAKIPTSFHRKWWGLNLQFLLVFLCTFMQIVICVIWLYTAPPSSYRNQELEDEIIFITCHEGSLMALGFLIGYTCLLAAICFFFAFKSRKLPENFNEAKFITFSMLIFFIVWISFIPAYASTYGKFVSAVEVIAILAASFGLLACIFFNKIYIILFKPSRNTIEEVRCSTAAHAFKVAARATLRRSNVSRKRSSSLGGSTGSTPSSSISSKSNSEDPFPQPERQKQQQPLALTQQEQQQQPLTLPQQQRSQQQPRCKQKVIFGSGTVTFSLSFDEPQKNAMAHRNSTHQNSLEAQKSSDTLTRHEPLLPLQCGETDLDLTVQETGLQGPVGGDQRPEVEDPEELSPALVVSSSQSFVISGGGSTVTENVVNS
Experiment: [Ca2+]i measurement with fluo-3 in HEK 293 4.0-7 cells stably transfected with hPCaR
Type: cell-based
Conditions: fluo-3 fluorescence (485/530 nm), effect on [Ca^2+]i
In short: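 Cytosolic [Ca2+] was read as fluo-3 fluorescence (ex 485/em 530 nm) after compound addition to washed cells. Cells were hPCaR-transfected HEK 293 clone 7, dye-loaded 30 min at 37 °C with 2 μM fluo-3 acetoxymethyl ester in HEPES-buffered saline pH 7.45 containing 1 mM CaCl2 and 0.5% BSA.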

SMILES | EC50 [µM]
C[C@@H](NCc1ccc(N2CCCC2)cc1)c1ccccc1 [(1R)-1-phenyl-N-((4-(1-pyrrolidinyl)phenyl)methyl)ethanamine] | ≤ 10
C[C@@H](NCc1ccc(OCC(F)(F)F)c(-c2ccc(C(F)(F)F)cc2)c1)c1ccccc1 [(1R)-1-phenyl-N-((6-((2,2,2-trifluoroethyl)oxy)-4′-(trifluoromethyl)-1,1′-biphenyl-3-yl)methyl)ethanamine] | ≤ 10
COc1ccc(CN[C@H](C)c2ccccc2)cc1-c1ccnc(Cl)c1 [(1R)-N-(3-(2-chloropyrid-4-yl)-4-methoxyphenyl)methyl-N-1-phenylethylamine] | ≤ 10
COc1cccc([C@@H](C)NCc2cccc(-c3ccccc3F)c2)c1 [(1R)-N-((2′-fluoro-1,1′-biphenyl-3-yl)methyl)-1-(3-(methyloxy)phenyl)ethanamine] | ≤ 10
COc1ccc([C@@H](C)NCc2cccc(-c3ccccc3F)c2)cc1 [(1R)-N-((2′-fluoro-1,1′-biphenyl-3-yl)methyl)-1-(4-(methyloxy)phenyl)ethanamine] | ≤ 10
Cc1ccc([C@@H](C)NCc2cccc(-c3ccccc3F)c2)cc1 [(1R)-N-((2′-fluoro-1,1′-biphenyl-3-yl)methyl)-1-(4-methylphenyl)ethanamine] | ≤ 10
COc1ccc([C@@H](C)NCc2cccc(-c3ccccc3C)c2)cc1 [(1R)-N-((2′-methyl-1,1′-biphenyl-3-yl)methyl)-1-(4-(methyloxy)phenyl)ethanamine] | ≤ 10
Cc1ccc([C@@H](C)NCc2cccc(-c3ccccc3C)c2)cc1 [(1R)-N-((2′-methyl-1,1′-biphenyl-3-yl)methyl)-1-(4-methylphenyl)ethanamine] | ≤ 10
COc1ccc([C@@H](C)NCc2cccc(-c3ccc4c(c3)OCO4)c2)cc1 [(1R)-N-((3-(1,3-benzodioxol-5-yl)phenyl)methyl)-1-(4-(methyloxy)phenyl)ethanamine] | ≤ 10
Cc1ccc([C@@H](C)NCc2cccc(-c3ccc4c(c3)OCO4)c2)cc1 [(1R)-N-((3-(1,3-benzodioxol-5-yl)phenyl)methyl)-1-(4-methylphenyl)ethanamine] | ≤ 10
C[C@@H](NCc1cccc(-c2ccc3c(c2)OCO3)c1)c1ccccc1 [(1R)-N-((3-(1,3-benzodioxol-5-yl)phenyl)methyl)-1-phenylethanamine] | ≤ 10
COc1ccc(CN[C@H](C)c2cccc3ccccc23)cc1-c1nc2ccccc2s1 [(1R)-N-((3-(1,3-benzothiazol-2-yl)-4-(methyloxy)phenyl)methyl)-1-(1-naphthalenyl)ethanamine] | ≤ 10
COc1cccc([C@@H](C)NCc2ccc(OC)c(-c3nc4ccccc4s3)c2)c1 [(1R)-N-((3-(1,3-benzothiazol-2-yl)-4-(methyloxy)phenyl)methyl)-1-(3-(methyloxy)phenyl)ethanamine] | ≤ 10
COc1ccc(CN[C@H](C)c2ccccc2)cc1-c1nc2ccccc2s1 [(1R)-N-((3-(1,3-benzothiazol-2-yl)-4-(methyloxy)phenyl)methyl)-1-phenylethanamine] | ≤ 10
COc1ccc(CN[C@H](C)c2cccc3ccccc23)cc1-c1ccc2ocnc2c1 [(1R)-N-((3-(1,3-benzoxazol-5-yl)-4-(methyloxy)phenyl)methyl)-1-(1-naphthalenyl)ethanamine] | ≤ 10
COc1ccc(CN[C@H](C)c2cccc3ccccc23)cc1-c1ccc2c(ccn2CC2CC2)c1 [(1R)-N-((3-(1-(cyclopropylmethyl)-1H-indol-5-yl)-4-(methyloxy)phenyl)methyl)-1-(1-naphthalenyl)ethanamine] | ≤ 10

SMILES | EC50 [µM]
COc1cccc([C@@H](C)NCc2ccc(OC)c(-c3ccc4c(ccn4CC4CC4)c3)c2)c1 [(1R)-N-((3-(1-(cyclopropylmethyl)-1H-indol-5-yl)-4-(methyloxy)phenyl)methyl)-1-(3-(methyloxy)phenyl)ethanamine] | ≤ 10
COc1ccc(CN[C@H](C)c2ccccc2)cc1-c1ccc2c(ccn2CC2CC2)c1 [(1R)-N-((3-(1-(cyclopropylmethyl)-1H-indol-5-yl)-4-(methyloxy)phenyl)methyl)-1-phenylethanamine] | ≤ 10
COc1ccc(CN[C@H](C)c2cccc3ccccc23)cc1C1CCN(C(C)=O)CC1 [(1R)-N-((3-(1-acetyl-4-piperidinyl)-4-(methyloxy)phenyl)methyl)-1-(1-naphthalenyl)ethanamine] | ≤ 10
COc1ccc(CN[C@H](C)c2cccc3ccccc23)cc1-c1csc2ccccc12 [(1R)-N-((3-(1-benzothien-3-yl)-4-(methyloxy)phenyl)methyl)-1-(1-naphthalenyl)ethanamine] | ≤ 10
COc1ccc(CN[C@H](C)c2ccccc2)cc1-c1csc2ccccc12 [(1R)-N-((3-(1-benzothien-3-yl)-4-(methyloxy)phenyl)methyl)-1-phenylethanamine] | ≤ 10
COc1ccc(CN[C@H](C)c2cccc3ccccc23)cc1-c1nc2ccccc2n1C [(1R)-N-((3-(1-methyl-1H-benzimidazol-2-yl)-4-(methyloxy)phenyl)methyl)-1-(1-naphthalenyl)ethanamine] | ≤ 10
COc1ccc(CN[C@H](C)c2cccc3ccccc23)cc1-c1ccc2c(c1)ncn2C [(1R)-N-((3-(1-methyl-1H-benzimidazol-5-yl)-4-(methyloxy)phenyl)methyl)-1-(1-naphthalenyl)ethanamine] | ≤ 10
COc1cccc([C@@H](C)NCc2ccc(OC)c(-c3ccc4c(c3)ncn4C)c2)c1 [(1R)-N-((3-(1-methyl-1H-benzimidazol-5-yl)-4-(methyloxy)phenyl)methyl)-1-(3-(methyloxy)phenyl)ethanamine] | ≤ 10
COc1ccc(CN[C@H](C)c2ccccc2)cc1-c1ccc2c(c1)ncn2C [(1R)-N-((3-(1-methyl-1H-benzimidazol-5-yl)-4-(methyloxy)phenyl)methyl)-1-phenylethanamine] | ≤ 10
COc1ccc(CN[C@H](C)c2cccc3ccccc23)cc1-c1cn(C)cn1 [(1R)-N-((3-(1-methyl-1H-imidazol-4-yl)-4-(methyloxy)phenyl)methyl)-1-(1-naphthalenyl)ethanamine] | ≤ 10
COc1ccc(CN[C@H](C)c2ccccc2)cc1-c1cn(C)cn1 [(1R)-N-((3-(1-methyl-1H-imidazol-4-yl)-4-(methyloxy)phenyl)methyl)-1-phenylethanamine] | ≤ 10
COc1ccc(CN[C@H](C)c2cccc3ccccc23)cc1-c1ccc2c(cnn2C)c1 [(1R)-N-((3-(1-methyl-1H-indazol-5-yl)-4-(methyloxy)phenyl)methyl)-1-(1-naphthalenyl)ethanamine] | ≤ 10
COc1ccc(CN[C@H](C)c2ccccc2)cc1-c1ccc2c(cnn2C)c1 [(1R)-N-((3-(1-methyl-1H-indazol-5-yl)-4-(methyloxy)phenyl)methyl)-1-phenylethanamine] | ≤ 10
COc1ccc(CN[C@H](C)c2cccc3ccccc23)cc1-c1ccc2ccn(C)c2c1 [(1R)-N-((3-(1-methyl-1H-indol-6-yl)-4-(methyloxy)phenyl)methyl)-1-(1-naphthalenyl)ethanamine] | ≤ 10
COc1cccc([C@@H](C)NCc2ccc(OC)c(-c3ccc4ccn(C)c4c3)c2)c1 [(1R)-N-((3-(1-methyl-1H-indol-6-yl)-4-(methyloxy)phenyl)methyl)-1-(3-(methyloxy)phenyl)ethanamine] | ≤ 10

Source: patent US6908935B2, “Calcium receptor modulating agents” (Amgen Inc., priority 2002, dated 2005)
